Source: patent US8951560B2, “Isoflavone nanoparticles and use thereof” (DSM IP Assets B.V., priority 2005, dated 2015)

Experiments:
[1] = Genistein particle size by laser diffraction technique (Mastersizer 2000); type: physicochemical
[2] = "swing" test (changing temperature test) of genistein-containing emulsions (Example 10); type: physicochemical; settings: FIG. 7, comparative: emulsions with example 7 genistein after dry grinding in a Jet mill, 0.3%, 0.5%, 0.1%; ten sequences 5° C./43° C.
Protocol: To force the crystallization in a disperse system, a test was used in which the temperature is changed over a self-defined timeframe and in self-defined sequences. The test is called “swing” test (changing temperature test). The purpose of this test is to dissolve small particles at the higher temperature and to force re-crystallization at lower temperature. […] The following formulations were used for the “swing” test: […]
Oil- and water phase (o+w) were separately heated up to 70° C. (±5° C.) and were added together. The thickening agent (t) was added under moderate agitation. The mixture was homogenized for 30 seconds at 24,000 RPM by means of an Ultra-Turrax T25 homogenizer. The emulsion was cooled down slowly to 45° C.±5° C. under moderate stirring (horseshoe mixer, 120 RPM). At this temperature the pH value was adjusted to pH 6.5-7.0 by adding base (b). Genistein (g) was added to the still fluid emulsion and was incorporated by homogenizing again for 30 sec. 24,000 RPM by means of an Ultra-Turrax T25 homogenizer. The formulation was cooled down to 25° C.±5° C. under moderate stirring (horseshoe mixer, 120 RPM). […]
FIGS. 5 to 7 show the results of the “swing” test. […] The following genistein samples and concentrations were employed and the emulsions were measured immediately after preparation and after subjecting the samples to ten sequences of the “swing” test: […]

[3] = Example 1, after homogenization (42 passes) and spray-drying, powder re-dispersed in water
[4] = Example 1, after homogenization (42 passes), 1500 bar, with starch sodium octenyl succinate, aqueous suspension
[5] = Example 1, before homogenization
[6] = Example 2, after homogenization (40 passes), 1500 bar, water only, no carrier
[7] = Example 2, after homogenization (42 passes) and spray-drying, powder re-dispersed in water
[8] = Example 2, after homogenization (42 passes), starch sodium octenyl succinate solution added after 40th pass
[9] = Example 2, before homogenization
[10] = Example 3, after homogenization (40 passes), 1500 bar, water only, no carrier
[11] = Example 3, after homogenization (42 passes) and spray-drying, powder re-dispersed in water
[12] = Example 3, after homogenization (42 passes), starch sodium octenyl succinate solution added after 40th pass
[13] = Example 3, before homogenization
[14] = Example 4, after homogenization (20 passes), 700 bar, water only, no carrier, about 20% solid
[15] = Example 4, before homogenization
[16] = Example 5, Table XI, after homogenization (42 passes) and spray-drying as headed, maltodextrin solution added after 40th pass
[17] = Example 5, Table XII, after homogenization (42 passes) and spray-drying, maltodextrin carrier, powder re-dispersed in water
[18] = Example 5, after homogenization (20 passes), 1500 bar, water only, no carrier
[19] = Example 5, before homogenization
[20] = Example 6, after homogenization (11 passages) in agitated bead mill, with starch sodium octenyl succinate
[21] = Example 6, before homogenization
[22] = Example 7, Table XIV, before milling and homogenization
[23] = Example 7, Table XV, before milling and homogenization
[24] = Example 7, after milling (Jet mill) and homogenization (12 times, 700 bar) with starch sodium octenyl succinate
[25] = Example 7, after milling, homogenization and spray drying

Average particle size D[3, 2] [1, 3]: 0.14 microns
Average particle size D[4, 3] [1, 3]: 0.83 microns
Genistein particle size D (v, 0.1) [1, 3]: 0.07 microns
Genistein particle size D (v, 0.5) [1, 3]: 0.16 microns
Genistein particle size D (v, 0.9) [1, 3]: 2.86 microns
Average particle size D[3, 2] [1, 4]: 0.15 microns
Average particle size D[4, 3] [1, 4]: 0.97 microns
Genistein particle size D (v, 0.1) [1, 4]: 0.07 microns
Genistein particle size D (v, 0.5) [1, 4]: 0.17 microns
Genistein particle size D (v, 0.9) [1, 4]: 3.65 microns
Average particle size D[3, 2] [1, 5]: 23.1 microns
Average particle size D[4, 3] [1, 5]: 48.5 microns
Genistein particle size D (v, 0.1) [1, 5]: 17.1 microns
Genistein particle size D (v, 0.5) [1, 5]: 41.9 microns
Genistein particle size D (v, 0.9) [1, 5]: 91.0 microns
Average particle size D[3, 2] [1, 6]: 0.14 microns
Average particle size D[4, 3] [1, 6]: 0.76 microns
Genistein particle size D (v, 0.1) [1, 6]: 0.07 microns
Genistein particle size D (v, 0.5) [1, 6]: 0.16 microns
Genistein particle size D (v, 0.9) [1, 6]: 2.42 microns
Average particle size D[3, 2] [1, 7]: 0.14 microns
Average particle size D[4, 3] [1, 7]: 0.55 microns
Genistein particle size D (v, 0.1) [1, 7]: 0.07 microns
Genistein particle size D (v, 0.5) [1, 7]: 0.15 microns
Genistein particle size D (v, 0.9) [1, 7]: 1.14 microns
Average particle size D[3, 2] [1, 8]: 0.14 microns
Average particle size D[4, 3] [1, 8]: 0.41 microns
Genistein particle size D (v, 0.1) [1, 8]: 0.07 microns
Genistein particle size D (v, 0.5) [1, 8]: 0.16 microns
Genistein particle size D (v, 0.9) [1, 8]: 0.93 microns
Average particle size D[3, 2] [1, 9]: 23.1 microns
Average particle size D[4, 3] [1, 9]: 48.5 microns
Genistein particle size D (v, 0.1) [1, 9]: 17.1 microns
Genistein particle size D (v, 0.5) [1, 9]: 41.9 microns
Genistein particle size D (v, 0.9) [1, 9]: 91.0 microns
Average particle size D[3, 2] [1, 10]: 0.14 microns
Average particle size D[4, 3] [1, 10]: 0.76 microns
Genistein particle size D (v, 0.1) [1, 10]: 0.07 microns
Genistein particle size D (v, 0.5) [1, 10]: 0.16 microns
Genistein particle size D (v, 0.9) [1, 10]: 2.00 microns
Average particle size D[3,2] (surface mean diameter) [1, 11]: 0.14 microns
Average particle size D[4, 3] [1, 11]: 0.43 microns
Genistein particle size D (v, 0.1) [1, 11]: 0.07 microns
Genistein particle size D (v, 0.5) [1, 11]: 0.16 microns
Genistein particle size D (v, 0.9) [1, 11]: 0.97 microns
Average particle size D[3, 2] [1, 12]: 0.14 microns
Average particle size D[4, 3] [1, 12]: 0.40 microns
Genistein particle size D (v, 0.1) [1, 12]: 0.07 microns
Genistein particle size D (v, 0.5) [1, 12]: 0.16 microns
Genistein particle size D (v, 0.9) [1, 12]: 0.91 microns
Average particle size D[3, 2] [1, 13]: 23.1 microns
Average particle size D[4, 3] [1, 13]: 48.5 microns
Genistein particle size D (v, 0.1) [1, 13]: 17.1 microns
Genistein particle size D (v, 0.5) [1, 13]: 41.9 microns
Genistein particle size D (v, 0.9) [1, 13]: 91.0 microns
Average particle size D[3, 2] [1, 14]: 0.13 microns
Average particle size D[4, 3] [1, 14]: 0.83 microns
Genistein particle size D (v, 0.1) [1, 14]: 0.07 microns
Genistein particle size D (v, 0.5) [1, 14]: 0.15 microns
Genistein particle size D (v, 0.9) [1, 14]: 2.62 microns
Average particle size D[3, 2] [1, 15]: 23.1 microns
Average particle size D[4, 3] [1, 15]: 48.5 microns
Genistein particle size D (v, 0.1) [1, 15]: 17.1 microns
Genistein particle size D (v, 0.5) [1, 15]: 41.9 microns
Genistein particle size D (v, 0.9) [1, 15]: 91.0 microns
Average particle size D[3, 2] [1, 16]: 0.14 microns
Average particle size D[4, 3] [1, 16]: 0.41 microns
Genistein particle size D (v, 0.1) [1, 16]: 0.07 microns
Genistein particle size D (v, 0.5) [1, 16]: 0.16 microns
Genistein particle size D (v, 0.9) [1, 16]: 0.93 microns
Average particle size D[3, 2] [1, 17]: 0.13 microns
Average particle size D[4, 3] [1, 17]: 0.41 microns
Genistein particle size D (v, 0.1) [1, 17]: 0.07 microns
Genistein particle size D (v, 0.5) [1, 17]: 0.15 microns
Genistein particle size D (v, 0.9) [1, 17]: 0.93 microns
Average particle size D[3,2] (surface mean diameter) [1, 18]: 0.14 microns
Average particle size D[4, 3] [1, 18]: 0.42 microns
Genistein particle size D (v, 0.1) [1, 18]: 0.07 microns
Genistein particle size D (v, 0.5) [1, 18]: 0.16 microns
Genistein particle size D (v, 0.9) [1, 18]: 0.92 microns
Average particle size D[3,2] (surface mean diameter) [1, 19]: 23.1 microns
Average particle size D[4, 3] [1, 19]: 48.5 microns
Genistein particle size D (v, 0.1) [1, 19]: 17.8 microns
Genistein particle size D (v, 0.5) [1, 19]: 41.4 microns
Genistein particle size D (v, 0.9) [1, 19]: 90.2 microns
Average particle size D[4, 3] [1, 20]: 0.23 microns
Genistein particle size D (v, 0.1) [1, 20]: 0.07 microns
Genistein particle size D (v, 0.5) [1, 20]: 0.16 microns
Genistein particle size D (v, 0.9) [1, 20]: 0.45 microns
Average particle size D[4, 3] [1, 21]: 48.5 microns
Genistein particle size D (v, 0.1) [1, 21]: 17.8 microns
Genistein particle size D (v, 0.5) [1, 21]: 41.4 microns
Genistein particle size D (v, 0.9) [1, 21]: 90.2 microns
Average particle size D[4, 3] [1, 22]: 48.5 microns
Genistein particle size D (v, 0.1) [1, 22]: 17.8 microns
Genistein particle size D (v, 0.5) [1, 22]: 41.4 microns
Genistein particle size D (v, 0.9) [1, 22]: 90.2 microns
Average particle size D[4, 3] [1, 23]: 48.5 microns
Genistein particle size D (v, 0.1) [1, 23]: 17.8 microns
Genistein particle size D (v, 0.5) [1, 23]: 41.4 microns
Genistein particle size D (v, 0.9) [1, 23]: 90.2 microns
Average particle size D[4, 3] [1, 24]: 0.53 microns
Genistein particle size D (v, 0.1) [1, 24]: 0.07 microns
Genistein particle size D (v, 0.5) [1, 24]: 0.18 microns
Genistein particle size D (v, 0.9) [1, 24]: 1.38 microns
Average particle size D[4, 3] [1, 25]: 0.65 microns
Genistein particle size D (v, 0.1) [1, 25]: 0.08 microns
Genistein particle size D (v, 0.5) [1, 25]: 0.19 microns
Genistein particle size D (v, 0.9) [1, 25]: 1.84 microns
Particle size change in the "swing" test [2]: Huge crystals are formed
Compound: O=c1c(-c2ccc(O)cc2)coc2cc(O)cc(O)c12 [Genistein, 4′,5,7-trihydroxyisoflavone]
